Measured values taken from patent publication US10953015B2, “Use of adenosine receptor signaling to regulate P-gp function” (CORNELL UNIVERSITY, priority 2016, dated 2021).

Experiments:
P-gp [1] = assay: Western blot of P-gp expression in primary mouse brain endothelial cells; type: cell-based; details: 1 μM, up to 72 hours
Experimental: Mice were sacrificed and meninges of brain were removed and ground using a plunger and centrifuged at 3,000 g for 5 minutes. The obtained pellet was dissolved in 18% dextran and centrifuged at 10,000 g for 10 minutes and digested with DMEM containing collagenase, DNAse, and dispase at 37° C. for 75 minutes. The sample was centrifuged for 5 minutes at 3,200 g, and the pellet was washed with warm PBS. The pellet was resuspended in DMEM/F12 with puromycin, heparin, 20% PDS, and 1-glutamine and plated onto the proper plate.
HCMEC-D3 and HBMVEC cells were plated in 12-well plates and were grown until they reached 100% confluency. The media was replaced with fresh media containing 1 μM of Lexiscan® or NECA with proper vehicle control (DMSO) for up to 72 hours. Cells were lysed by lysis buffer […] containing protease inhibitor cocktail and stored for later use (−70° C.). For cytoskeletal fraction analysis, cells were lysed in CSK buffer (100 mM NaCl, 300 mM sucrose, 3 mM MgCl2, 10 mM PIPES, pH 6.8). For brain samples, half of the brain was homogenized and lysed with […] lysis buffer and centrifuged at 17,000 g for 20 minutes and 1:10 diluted samples were used for analysis. […] The intensity of band was analyzed with densitometric analysis and plotted as a graph for analysis of time-course effect of AR signaling on P-gp expression.

P-gp [2] = assay: Western blot of P-gp expression in primary human brain endothelial cells; type: cell-based; details: 1 μM, up to 72 hours
Experimental: (§1) HCMEC-D3 and HBMVEC cells were plated in 12-well plates and were grown until they reached 100% confluency. The media was replaced with fresh media containing 1 μM of Lexiscan® or NECA with proper vehicle control (DMSO) for up to 72 hours. Cells were lysed by lysis buffer […] containing protease inhibitor cocktail and stored for later use (−70° C.). For cytoskeletal fraction analysis, cells were lysed in CSK buffer (100 mM NaCl, 300 mM sucrose, 3 mM MgCl2, 10 mM PIPES, pH 6.8). For brain samples, half of the brain was homogenized and lysed with […] lysis buffer and centrifuged at 17,000 g for 20 minutes and 1:10 diluted samples were used for analysis. Sample was loaded on 7% SDS PAGE at 100 V for 1 hour and transferred to the nitrocellulose paper. It was blocked with 1% BSA and incubated with anti-P-gp antibody (Genetex, 1:2000) overnight. Subsequently, it was washed with TBST and incubated with anti-rabbit secondary antibody (1:2000) for 1 hour. It was washed with TBST and developed with ECL substrate and exposed to x-ray film. Anti-GAPDH or −β-actin antibody was used as loading control. The intensity of band was analyzed with densitometric analysis and plotted as a graph for analysis of time-course effect of AR signaling on P-gp expression.

P-gp [3] = assay: P-gp expression in brain of WT mice (western blot, IFA of frozen section); type: in vivo, mouse
Experimental: as §1
Mice were treated with Lexiscan® or NECA at different time points and were infused with ice-cold PBS and sacrificed. Half of the brain was cut and put in the cassette and filled with OCT solution. Samples were snap-frozen with liquid nitrogen, cut with cryostat (10 μm) and fixed with acetone for 5 minutes, and incubated with C219 for P-gp stain (1:100) and Glut1 for endothelial cell marker (1:100) at 4° C. overnight. Sections were washed with PBS and additionally stained with secondary antibody conjugated with fluorochrome. Full images of the brain sections were visualized and recorded using Aperio Scan Scope (Leica Biosystems).

P-gp [4] = target: T1, P-gp (Mus musculus, UniProt P21447); assay: Epirubicin brain accumulation assay; type: in vivo; details: mice
T1 construct: down-modulation of P-gp expression and function in brain vascular endothelial cells in WT mice; from tissue; host or cells: brain of WT mice
Experimental: FIG. 12A is a fluorescence microscopy image showing immunofluorescence images of brains from Lexiscan®-treated mice of WT brain at 15 and 30 minutes after Lexiscan® treatment. Frozen brain sections were stained with GLUT1 (red), or P-gp (green) and counterstained with DAPI (blue). FIG. 12B is a fluorescence microscopy image showing an enlarged image of FIG. 12A. FIG. 12C is a graph summarizing the experimental results of a brain epirubicin accumulation assay in the Lexiscan®- and vehicle-treated (control) mice. Briefly, 10 mg/kg of epirubicin was injected intravenously with or without 0.05 mg/kg of Lexiscan®. Mice were perfused with ice-cold PBS and sacrificed at different time points. The accumulation of epirubicin in the brain was measured using fluorometric excitation at 488 nm and emission at 590 nm. *P<0.05 (n=4, 2-tailed Student's t test). FIG. 12D are fluorescence microscopy images showing fluorescent microscopic analysis of epirubicin accumulation in the brains of mice treated with Lexiscan® or PSC833 (a functional P-gp inhibitor) compared with vehicle (control). 10 mg/kg of epirubicin was injected intravenously with or without 0.05 mg/kg of Lexiscan® or 50 mg/kg of PSC833 for 15 minutes. Mice were perfused with ice-cold PBS and sacrificed. Brain was sectioned for microscopic analysis for full-brain image, and focal zoomed image from cortex was laid as an inset. Epirubicin is in red, and nucleus was counterstained with DAPI (blue). FIG. 12E are graphs showing the quantified intensity of epirubicin from different regions of cortex (CTX), cerebellum (CRBL), and hippocampus (HPC) from brains of control, Lexiscan®-, or PSC833-injected animals and depicted as graphs. The scale bars indicate 100 μm in FIG. 12A; 50 μm in FIG. 12B, and 5 mm in FIG. 12D). ***P<0.001 (n=50, 2-tailed Student's t test).
FIG. 14A is a western blot of P-gp and BCRP1 from mouse brain at 2 and 18 hours after NECA treatment. FIG. 14B are graphs showing the enumeration of the expression intensity of P-gp and BCRP1 from the western blots shown in FIG. 14A. The intensity of the bands from NECA treatment group was divided by that of DMSO control. […] For fluorescence microscopy, frozen brain sections were stained with GLUT1 (red) or P-gp (green) and counterstained with DAPI (blue). […] The accumulation of epirubicin in the brain was measured using fluorometry, with excitation at 488 nm and emission at 590 nm. *P<0.05 (n=4, 2-tailed Student's t test).
For Lexiscan® study, 10 mg/kg of epirubicin was injected with or without Lexiscan® (0.05 mg/kg) at different time points, and mice were sacrificed. […] Samples were spun down at 17,000 g for 30 minutes, and the concentration for epirubicin was analyzed with fluorimetry with […].

T1 sequence (P21447 whole entry): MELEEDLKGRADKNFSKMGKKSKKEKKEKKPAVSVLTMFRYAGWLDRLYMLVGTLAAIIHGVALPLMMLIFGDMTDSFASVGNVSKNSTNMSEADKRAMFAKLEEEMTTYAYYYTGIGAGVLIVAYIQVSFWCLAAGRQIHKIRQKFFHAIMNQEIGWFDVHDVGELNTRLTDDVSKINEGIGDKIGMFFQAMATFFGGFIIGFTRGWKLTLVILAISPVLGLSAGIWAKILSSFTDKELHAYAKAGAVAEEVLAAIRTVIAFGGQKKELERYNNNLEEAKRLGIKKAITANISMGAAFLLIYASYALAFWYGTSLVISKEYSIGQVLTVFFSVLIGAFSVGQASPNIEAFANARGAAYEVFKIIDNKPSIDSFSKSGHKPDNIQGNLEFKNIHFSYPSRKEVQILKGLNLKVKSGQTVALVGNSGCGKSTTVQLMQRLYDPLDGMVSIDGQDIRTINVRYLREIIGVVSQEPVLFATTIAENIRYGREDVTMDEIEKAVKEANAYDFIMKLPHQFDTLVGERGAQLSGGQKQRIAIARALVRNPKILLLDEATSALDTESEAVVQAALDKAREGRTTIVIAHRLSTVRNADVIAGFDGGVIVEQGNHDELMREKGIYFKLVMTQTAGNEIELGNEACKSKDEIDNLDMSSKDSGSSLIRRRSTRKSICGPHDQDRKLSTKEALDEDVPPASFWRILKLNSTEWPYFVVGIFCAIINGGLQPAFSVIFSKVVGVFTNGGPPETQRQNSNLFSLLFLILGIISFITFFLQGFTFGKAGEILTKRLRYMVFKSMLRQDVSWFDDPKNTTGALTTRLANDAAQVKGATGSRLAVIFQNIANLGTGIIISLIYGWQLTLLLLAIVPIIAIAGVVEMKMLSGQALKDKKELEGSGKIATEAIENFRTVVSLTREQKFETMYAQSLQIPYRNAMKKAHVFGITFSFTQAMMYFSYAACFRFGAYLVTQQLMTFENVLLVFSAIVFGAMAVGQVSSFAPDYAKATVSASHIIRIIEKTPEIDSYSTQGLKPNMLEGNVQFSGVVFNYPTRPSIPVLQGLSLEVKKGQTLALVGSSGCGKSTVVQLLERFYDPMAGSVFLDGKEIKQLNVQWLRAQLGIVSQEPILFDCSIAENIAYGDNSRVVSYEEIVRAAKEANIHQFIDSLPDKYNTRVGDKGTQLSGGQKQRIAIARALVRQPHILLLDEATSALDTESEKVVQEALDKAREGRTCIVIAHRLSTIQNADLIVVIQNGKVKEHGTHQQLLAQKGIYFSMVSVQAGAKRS

Row | SMILES | P-gp expression (western blot, normalized to GAPDH) (P-gp [1]) | P-gp expression (western blot, vs DMSO control) (P-gp [2]) | P-gp expression level in brain (P-gp [3]; 2 and 18 hours after NECA) | Epirubicin accumulation in the brain (fluorometry) (P-gp [4]; 0.08 mg/kg NECA i.v., then 10 mg/kg epirubicin i.v. for 15 minutes) | Time at which effect on P-gp occurred (P-gp [3]) [min] | P-gp expression in brain endothelial cells (P-gp [3]; Lexiscan® treatment, 5 to 60 minutes) | Epirubicin fluorescent intensity in brain sections (cortex, cerebellum, hippocampus) (P-gp [4]; 10 mg/kg epirubicin i.v. with 0.05 mg/kg Lexiscan® or 50 mg/kg PSC833 for 15 minutes) | Epirubicin accumulation in the brain (fluorometry) (P-gp [4]; 10 mg/kg epirubicin i.v. with 0.05 mg/kg Lexiscan®, different time points)
1 | CCNC(=O)[C@H]1O[C@@H](n2cnc3c(N)ncnc32)[C@H](O)[C@@H]1O [NECA, (2S,3S,4R,5R)-5-(6-aminopurin-9-yl)-N-ethyl-3,4-dihydroxyoxolane-2-carboxamide] | P-gp expression decreased very rapidly and remained down-modulated for up to 4 hours | began to decrease at 30 minutes and was maintained for up to 48 hours and recovered by 72 hours | gradual decrease in P-gp expression level, beginning at 2 hours; this was maintained for up to 18 hours | showed epirubicin accumulation in the brain that matched the kinetics of P-gp decrease | – | – | – | –
2 | CNC(=O)c1cnn(-c2nc(N)c3ncn([C@@H]4O[C@H](CO)[C@@H](O)[C@H]4O)c3n2)c1 [Lexiscan®, 1-[6-amino-9-[(2R,3R,4S,5R)-3,4-dihydroxy-5-(hydroxymethyl)oxolan-2-yl]purin-2-yl]-N-methylpyrazole-4-carboxamide] | rapid down-modulation of P-gp beginning at 30 minutes, which was maintained for up to 1 hour | rapid down-modulation of P-gp expression, which began to decrease at 15 minutes and was maintained at a decreased level for up to 4 hours | – | – | ≤ 5 | decreased P-gp expression in brain endothelial cells in WT mice between 5 and 15 minutes; this was recovered by 30 minutes | Significant epirubicin intensity in the cerebral cortex, the cerebellum, and the hippocampus | began to increase at 5 minutes; this was maintained up to 30 minutes and returned to baseline by 60 minutes
